Earlier results on one substance are cited in patent US20130129859A1, “DOSING PROTOCOLS FOR INCREASING PROTEIN SYNTHESIS IN AN ACTIVE INDIVIDUAL” (priority 2009, published 2013).

Turning to casein, the Whole-body protein synthesis result (previously discussed study) is listed as “best with casein”. For the same substance, the “Leucine balance, slow versus fast protein meal matched for leucine content” value (young, healthy subjects) is recorded as “higher leucine balance”.
